Data from paper PMC8305768, “Design, Synthesis and Antiparasitic Evaluation of Click Phospholipids” (Molecules, 2021).
Structures can show the parent of a compound that is named as a salt.

What was measured:
[1] = system: L. donovani strain BPK190 amastigotes; assay: Activity against L. donovani intramacrophage amastigotes (bone marrow-derived macrophages, qPCR); format: cell-based, Leishmania donovani; details: Leishmania donovani, Macrophage, infected bone marrow-derived macrophages, 48 h, read-out: Parassite Load Reduction (%)
Protocol: L. donovani strain BPK 190 [55] was cultivated at 25 °C in modified Medium199 (Sigma-Aldrich, with 20% heat-inactivated FCS, 40 mM HEPES pH 7.4, 0.2% NaHCO3, 100 μM adenin, 1.2 μg/mL 6-biopterin and 10 μg/mL haem, with 1 × Pen/Strep/l-glutamine (Sigma, Saint Louis, MI, USA), pH 7.0).
Activity against L. donovani strain BPK190 was tested in vitro using bone marrow-derived macrophages as host cells. Infection was established for 24 h prior to the addition of compounds from 10 mM stocks in DMSO. Parasite load was determined 48 h later by quantifying Leishmania actin DNA relative to mouse actin DNA using real time qPCR as described.

[2] = system: T. cruzi Y strain intracellular amastigotes; assay: Activity against T. cruzi Y strain intracellular amastigotes (HG39 cell-line, parasite load); format: cell-based; details: Trypanosoma cruzi, read-out: Parassite Load Reduction (%)
Protocol: T. cruzi epimastigotes (Y strain) were obtained by axenic cultivation in the LIT medium, supplemented with 10% FBS (Cultilab, São Paulo, Brazil). Cultures were maintained at […] for 4–5 days until they reached the log growth phase. New cultures were made every 4 days from the initial inoculum of 2 × 10^6 parasites/mL. T. cruzi trypomastigotes (Y strain) were maintained in culture by the infection of LLC-MK2 (ATTC-CCL7) epithelial cells. This cell line was cultured in […] tissue culture bottles (TPP) in RPMI 1640 medium (Gibco), (Thermo Fischer Scientific, Carlsbad, CA, USA) supplemented with 10% FBS (Gibco) (Thermo Fischer Scientific, Carlsbad, CA, USA). Cultures were maintained at 37 °C under 5% CO2 atmosphere, and RPMI 1640 medium and SFB were exchanged every 48 h. After confluence, the cultures were treated with 1 mL of a mixture of trypsin and versene (Sigma, São Paulo, Brazil) (0.2 and 0.002%, respectively). After 24 h, a subconfluence culture was infected with the trypomastigotes in the approximate proportion of 10:1 parasites/cell. From five to seven days post infection, the trypomastigote stage was obtained from the culture supernatant. Alternatively (Figure 2), T. cruzi strain Y was maintained as previously described.

[3] = system: T. b. brucei L427 WT bloodstream form; assay: Activity against T. brucei bloodstream forms (resazurin-based assay); format: cell-based; details: Trypanosoma brucei, 72 h
Protocol: Trypanosoma brucei brucei Lister 427 bloodstream forms were grown at 37 °C, 5% CO2 in complete HMI-9 medium supplemented with 10% foetal calf serum (FCS) and 100 UI/mL of penicillin/streptomycin. […] The efficacy of compounds against T. brucei bloodstream forms was evaluated using a modified resazurin-based assay previously described. Mid-log bloodstream forms were added to an equal volume of serial dilutions of compounds in supplemented complete HMI-9 medium at a final cell density of 5 × 10^3/mL. Following incubation for 72 h at 37 °C 5% CO2, 20 μL of a 0.5 mM resazurin solution was added and plates were incubated for a further 4 h under the same conditions. Fluorescence was measured at 540 nm and 620 nm excitation and emission wavelength, respectively, using a Synergy 2 Multi-Mode Reader (Biotek, Winooski, VT, USA).

[4] = Cytotoxicity against THP-1 macrophages (MTT); format: cell-based; details: human, PMA-differentiated THP-1 macrophages, read-out: Toxicity CC50 ± SD Or CC50 Interval Estimation
Protocol: The effect of compounds selected compounds on THP-1-derived macrophages was assessed by the colorimetric MTT assay (3-(4,5-dimethylthiazol-2-yl)-2,5-diphenyl tetrazolium bromide). Briefly, 1 × 10^5 THP-1 cells/mL were differentiated into macrophages by addition of 20 ng/mL of phorbol-myristate 13-acetate (PMA, Sigma, Saint Louis, MI, USA) for 18 h, followed by replacement with fresh medium for 24 h. Cells were incubated with 100 µL of compounds ranging from 100 to 1 µM after dilution in the RPMI complete medium containing a maximum amount of 1% DMSO. After incubation for 72 h, the medium was removed and 100 µL of 0.5 mg/mL MTT solution diluted in RPMI was added. Plates were incubated for an additional 4 h to allow viable cells to convert MTT into a purple formazan product. Solubilization of formazan crystals was achieved by the addition of 2-propanol and absorbance was read at 570 nm using a Synergy 2 Multi-Mode Reader (Biotek, Winooski, VT, USA). Cytotoxicity was evaluated by the determination of the CC50 value (drug concentration that reduced the percentage of viable cells in 50%) and calculated by non-linear regression analysis using GraphPad Prism version 8.1.1 for Windows (GraphPad Software, San Diego, CA, USA).

CYP1A2 = molecular target: T1, CYP1A2 (Homo sapiens, UniProt P05177); assay: Cytochrome P450 inhibition assay (P450-Glo) CYP1A2; format: in vitro ADME; details: compounds 10 μM; miltefosine 10 μM or 1 μM
T1 construct: purchased Corning Inc; host or cells: baculovirus-infected insect cells
T1 sequence (P05177 2-516 limits assumed): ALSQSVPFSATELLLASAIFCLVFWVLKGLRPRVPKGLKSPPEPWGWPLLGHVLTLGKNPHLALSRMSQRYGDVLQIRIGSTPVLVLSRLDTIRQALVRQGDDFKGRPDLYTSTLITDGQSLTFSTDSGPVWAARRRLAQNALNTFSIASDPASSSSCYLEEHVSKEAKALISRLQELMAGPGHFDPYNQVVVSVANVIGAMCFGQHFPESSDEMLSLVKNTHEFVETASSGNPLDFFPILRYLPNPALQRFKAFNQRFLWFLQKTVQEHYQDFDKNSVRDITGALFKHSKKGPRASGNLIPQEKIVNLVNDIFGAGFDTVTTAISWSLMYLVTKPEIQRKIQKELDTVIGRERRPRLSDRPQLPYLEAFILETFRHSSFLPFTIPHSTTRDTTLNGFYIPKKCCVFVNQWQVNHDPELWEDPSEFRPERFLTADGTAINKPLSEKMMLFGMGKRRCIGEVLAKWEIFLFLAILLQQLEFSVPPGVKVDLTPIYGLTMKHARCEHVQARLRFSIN
Text: Cytochrome (CYP) P450 inhibition assay: These assays made use of microsomal preparations of CYP450 (1A2, 2C9, 2C19, 2D6 and 3A4) from baculovirus-infected insect cells (Corning Inc., Corning, NY, USA) and cytochrome c reductase (and cytochrome b5 for CYP450 3A4). For detection of CYP450 activity, the luminescence-based P450-Glo (Promega Corp., Madison, WI, USA) assay system was used that contained a luminogenic CYP450 substrate, lyophilized luciferin detection reagent and reconstitution buffer. The substrates were luciferin derivatives of CYP450-specific substrates that produce (4S)-4,5-dihydro-2-(6-hydroxybenzothiazolyl)-4-thiazolecarboxylic acid (D-luciferin) after cleavage by CYP450 (CYP450 3A4, luciferin-IPA; CYP450 2C19, luciferin-H EGE; CYP450 2C9, luciferin-H; CYP450 2D6, luciferin-ME EGE; CYP450 1A2, luciferin-1A2). CYP450 reactions were initiated by addition of the NADPH regeneration system to the enzyme–substrate mixture with the luciferin detection reagent stopping the reaction and the D-luciferin being converted to oxyluciferin under the production of light being proportional to the CYP450 activity. The CYP450 assays were performed using the Tecan Fluent liquid-handling automation platform (Tecan Group Ltd., Mannedorf, Switzerland) in the 384-well assay format. Compounds were added into an empty 384-well plate (100 nL/well in 1% v/v DMSO) using the Echo 550 Liquid Handler followed by the addition of 5 μL/well of the CYP450/substrate mixture and incubation for 30 min at 37 °C, after which the reaction was initiated by the addition of the 5 μL/well NADPH regeneration system. After a further 30-min incubation at 37 °C, the CYP450 reaction was stopped and the luciferase reaction was simultaneously initiated by addition of 10 μL/well of luciferin detection reagent, followed by an additional 30-min incubation at 37 °C. The luminescence signal was detected using an Infinite M1000 PRO plate reader (Tecan Group Ltd., Mannedorf, Switzerland). The NCs yielded 0% inhibition (1% v/v DMSO) and standard CYP450 specific inhibitors were used as positive controls, yielding 100% inhibition (CYP450 1A2, alpha-naphthoflavone; CYP450 2C9, sulfaphenazole; CYP450 2C19, troglitazone; CYP450 2D6, quinidine; CYP450 3A4, ketoconazole).
Data analysis: The screening data were obtained in triplicate and analysed using ActivityBase (IDBS, Guildford, UK), and outlier elimination in the control wells was performed using the 3-sigma method. Unless stated, dose–response experiments were performed in the 11-point format with the IC50 value, Hill slope, minimum signal and maximum signal for each dose–response curve obtained using a four-parameter logistic fit in the XE module of ActivityBase (IDBS).

Compound: C[N+](C)(C)CCOP(=O)([O-])OCCCCCCCCCCCn1cc(CCCCCCCCN)nn1 [Compound 36, 11-(4-(8-aminooctyl)-1H-1,2,3-triazol-1-yl)undecyl (2-(trimethylammonio)ethyl) phosphate inner salt]
- inhibition of growth at 5 µM [1]: 20.3%
- inhibition of growth at 10 µM [2]: 0%
- inhibition at 10 µM ([3]; 10 μM, read-out: Single Dose Assay 10μM Mean Inhibitory Activity (%) ± SD): 30 ± 7%
- CC50 at 72 h [4]: > 100 µM
- % inhibition ± SD at 10 μΜ CYP1A2 (CYP1A2): 3.18%

Compound: N=C(N)c1ccc(OCCCCCOc2ccc(C(=N)N)cc2)cc1 [Pentamidine, reference compound]
- IC50 ([3]; read-out: Dose Response Curves IC50 ± SD): 0.00155 ± 0.00024 µM

Compound: C[N+](C)(C)CCOP(=O)([O-])OCCCCCCCCCCCn1cc(CCCCCCCCC(=O)OCc2ccccc2)nn1 [Compound 30, 11-(4-(9-(benzyloxy)-9-oxononyl)-1H-1,2,3-triazol-1-yl)undecyl (2-(trimethyl ammonio)ethyl) phosphate inner salt]
- inhibition of growth at 5 µM [1]: 0%
- inhibition of growth at 10 µM [2]: 69.7%
- CC50 at 72 h [4]: > 100 µM
- % inhibition ± SD at 10 μΜ CYP1A2 (CYP1A2): –2.91%

Compound: CC1CS(=O)(=O)CCN1/N=C/c1ccc([N+](=O)[O-])o1 (centres unmarked) [Nifurtimox, reference compound]
- inhibition of growth at 10 µM [2]: 81.2%
